Our source for the TGI and GI50 values is PubChem BioAssay (NCI).

Values joined by “and” are separate entries in the source; they are usually repeats but may differ in a detail not shown here. Identical values can stand only once.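 Dose response: 5 concentrations. Exposure: 48 h. Format: 96-well plates. Endpoint: linear interpolation; highest concentration if not reached. The concentration for 50% growth inhibition is given as GI50. TGI is the concentration that stops growth completely.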 Bounds are passed on as bounds.

The subject of one assay is SNB-78 CNS. The assay is described as follows: NCI anticancer screen, dose series, 48 h.
Consider `COC(=O)OCC1OC(N2C(=O)NC(=O)C(Br)C2N=[N+]=[N-])CC1OC(=O)OC` (configuration not stated), for which the TGI is over 100 µM.
On the same count and under the same terms, the same measure for `CC12CCCCC1(C)C2Sc1ccccc1` (configuration not stated): over 80.1 µM; for `CCCCOC(=O)NC(=O)c1cn(CCCOC(=O)NCCCCCCNC(=O)OCCCn2cc(C(=O)NC(=O)OCCCC)c(=O)[nH]c2=O)c(=O)[nH]c1=O`: over 100 µM; for `C[C@@]12CCCc3coc(c31)C(=O)c1cc3c(cc12)C(=O)C=CC3=O`: over 1 µM.
As to `COc1cc(C)c2c(c1C)OC(=O)c1c(C)c(Cl)c(O)c(C=O)c1O2`, the TGI turned out to be 50.6 µM.
Still for that read-out and setting: the same measure for `COC(=O)/C(C=O)=C/Sc1ccccc1`: over 100 µM; for `C=C1C[C@]23CCC4C(C)(C)C(=O)CC[C@]4(C)C2C[C@H]1C(O)C3=O` (some centres not stated): over 75 µM.
With `O=C1CC2C(=O)N(Cc3ccccc3)C1C=C2S(=O)(=O)c1ccccc1` (configuration not stated), the TGI is over 100 µM.
Consider `N.N.N.N.[Cl-].[Co+3].[N-]=[N+]=[N-].[N-]=[N+]=[N-]`, for which the GI50 was over 100 µM and the TGI is over 100 µM.
Molecule `O=c1[nH]c2cc(Cl)ccc2nc1/C(=N\O)C(O)c1ccc(Cl)cc1Cl` (configuration not stated) came in with a TGI of over 100 µM.
The same measure, in the same setting: the same measure for `CC(C)CCCC(C)[C@H]1CCC2[C@H]3C(CC[C@@]21C)[C@@]1(C)CCC=C[C@]12C[C@@H]2[C@@H]3O` (some centres not stated): over 100 µM; for `O=C(Nc1cc(Cl)ccc1Cl)C(=O)C(c1cnc2ccccc2n1)[N+](=O)[O-]` (configuration not stated): over 100 µM; for `CN[C@@H](C)[C@H](NC)c1ccccc1`: over 100 µM.

Another assay concerns NCI-H460 lung. The assay is described as follows: NCI anticancer screen, dose series, 48 h.
As to `COc1cc2ccc3c4cc(OC)c(OC(C)C)cc4cnc3c2cc1OC`, the TGI is over 100 µM.
Still for that read-out and setting: the same measure for `CN1NC(=Nc2ccccc2)Sc2c1cnn(-c1ccccc1)c2=O`: over 100 µM.
As for `C1C[OH+]CCNCC[OH+]CC[OH+]CCN1.[Cl-].[Pt+4]`, the GI50 was over 100 µM and the TGI was over 100 µM.
For the molecule `CC(=O)c1sc(-c2nc(C)c(C(=O)/C=C\c3ccc(/C=C\C(=O)c4sc(-c5nc(C)c(C(C)=O)s5)nc4C)cc3)s2)nc1C`, the TGI was over 100 µM.
`COC(=O)/C(C)=C/[N+](=O)[O-]` gave a TGI of 54.8 µM.
Still for that read-out and setting: the value for `Cc1ccc(C2(O)CC(c3ccc([N+](=O)[O-])o3)=NN2C(=O)COc2ccc(Cl)cc2)cc1` (configuration not stated) was 20.7 µM; that for `CC1=NN(C(=O)CC(=O)N(C(=O)c2ccccc2Cl)c2ccc(C)cc2)C(=O)C1N=Nc1ccc([N+](=O)[O-])cc1` (configuration not stated) was over 76.5 µM.
Same read-out and setting: the value for `COc1cccc(-n2c3nc(=O)n(C)c(=O)c-3nc3ccccc32)c1` was 33.4 µM; that for `CC(C)(C=O)CC(C#N)/C(=N\NC(N)=O)C(=O)Nc1ccccc1C(N)=O` (configuration not stated) was over 100 µM; that for `Cc1cc(C)c(C2[C@H]3C(=O)N(c4ccc(Cc5ccc(N6C(=O)[C@@H]7ON(c8ccccc8)C(c8c(C)cc(C)cc8C)[C@@H]7C6=O)cc5)cc4)C(=O)[C@H]3ON2c2ccccc2)c(C)c1` (some centres not stated) was over 100 µM.
Still for that read-out and setting: the same measure for `COC(=O)OCC1OC(N2C(=O)NC(=O)C(Br)C2N=[N+]=[N-])CC1OC(=O)OC` (configuration not stated): over 100 µM; for `CC12CCCCC1(C)C2Sc1ccccc1` (configuration not stated): over 100 µM.
In the case of `CCCCOC(=O)NC(=O)c1cn(CCCOC(=O)NCCCCCCNC(=O)OCCCn2cc(C(=O)NC(=O)OCCCC)c(=O)[nH]c2=O)c(=O)[nH]c1=O`, the TGI is over 100 µM.
Take `C[C@@]12CCCc3coc(c31)C(=O)c1cc3c(cc12)C(=O)C=CC3=O`: the GI50 is over 1 µM; the TGI was > 1 µM and 41.3 µM.
In turn, `COc1cc(C)c2c(c1C)OC(=O)c1c(C)c(Cl)c(O)c(C=O)c1O2` had a TGI of 40.3 µM.
Same read-out and setting: the value for `C=CCNC(=O)N(CCC)CCCCC(NC(C)=O)C(=O)NCc1ccccc1` (configuration not stated) was over 100 µM; that for `COC(=O)/C(C=O)=C/Sc1ccccc1` was over 100 µM.
Regarding `O=C1CC2C(=O)N(Cc3ccccc3)C1C=C2S(=O)(=O)c1ccccc1` (configuration not stated), the TGI is over 100 µM.
As for `N.N.N.N.[Cl-].[Co+3].[N-]=[N+]=[N-].[N-]=[N+]=[N-]`, the GI50 was over 100 µM and the TGI is over 100 µM.
For `O=c1[nH]c2cc(Cl)ccc2nc1/C(=N\O)C(O)c1ccc(Cl)cc1Cl` (configuration not stated), the TGI is over 100 µM.
Same read-out and setting: the same measure for `CC(C)CCCC(C)[C@H]1CCC2[C@H]3C(CC[C@@]21C)[C@@]1(C)CCC=C[C@]12C[C@@H]2[C@@H]3O` (some centres not stated): over 100 µM.
Turning to `C=C1C(=O)O[C@H]2[C@H]1CC/C(COC(=O)c1ccc(Cl)nc1)=C\CC[C@@]1(C)O[C@@H]21`, the GI50 is 5.19 µM and the TGI came to 21.4 µM.
Take `O=C(Nc1cc(Cl)ccc1Cl)C(=O)C(c1cnc2ccccc2n1)[N+](=O)[O-]` (configuration not stated): the TGI was over 100 µM.
Regarding `Cc1cc[c-]cc1.Fc1c[c-]c(-c2ccccn2)c(F)c1.[Pt+2].c1ccc(P(C[PH+](c2ccccc2)c2ccccc2)c2ccccc2)cc1`, the GI50 is 1.77 µM and the TGI came out at 7.1 µM.
In the case of `COc1cc2ncn(-c3cc(OCCc4ccccc4)c(C(N)=O)s3)c2cc1OC`, the GI50 was over 25 µM and the TGI is over 25 µM.
In turn, `Nc1nc(CCl)nc(Nc2ccccc2)n1` displayed a TGI of 39.3 µM.
The same measure, in the same setting: the same measure for `COc1ccc(OC)c2c(/C=C/c3ccc(N(C)C)cc3)ccnc12`: over 10 µM; for `O=S1OC2(c3ccccc3-c3ccccc32)c2ccccc21` (configuration not stated): over 100 µM.

A further assay has as its system BT-549 breast. Description: NCI anticancer screen, dose series, 48 h.
On to `C=C1C(=O)O[C@H]2[C@H]1CC/C(COC(=O)c1ccc(Cl)nc1)=C\CC[C@@]1(C)O[C@@H]21`, for which the GI50 was 1.95 µM and the TGI turned out to be 6.71 µM.
For `Cc1cc[c-]cc1.Fc1c[c-]c(-c2ccccn2)c(F)c1.[Pt+2].c1ccc(P(C[PH+](c2ccccc2)c2ccccc2)c2ccccc2)cc1`, in that order: 2.62 µM and 12.2 µM.
Take `COc1cc2ncn(-c3cc(OCCc4ccccc4)c(C(N)=O)s3)c2cc1OC`: the GI50 was over 25 µM and the TGI is over 25 µM.
Take `COc1ccc(OC)c2c(/C=C/c3ccc(N(C)C)cc3)ccnc12`: the TGI was over 10 µM.

A further assay relates to T-47D breast. The assay is described as follows: NCI anticancer screen, dose series, 48 h.
On to `C=C1C(=O)O[C@H]2[C@H]1CC/C(COC(=O)c1ccc(Cl)nc1)=C\CC[C@@]1(C)O[C@@H]21`, for which the GI50 was 1.79 µM and the TGI was 5.3 µM.
`Cc1cc[c-]cc1.Fc1c[c-]c(-c2ccccn2)c(F)c1.[Pt+2].c1ccc(P(C[PH+](c2ccccc2)c2ccccc2)c2ccccc2)cc1`: the GI50 is 2.34 µM and the TGI came out at 9.47 µM.
In the case of `COc1cc2ncn(-c3cc(OCCc4ccccc4)c(C(N)=O)s3)c2cc1OC`, the GI50 was over 25 µM and the TGI is over 25 µM.
Take `COc1ccc(OC)c2c(/C=C/c3ccc(N(C)C)cc3)ccnc12`: the TGI was over 10 µM.
